{
  "source": "patent EP0300107A1",
  "about": "“Ester, thioester and amide derivatives of oxolinic acid, process for their synthesis and their therapeutical use” (VETOQUINOL S.A., priority 1987, dated 1989)",
  "key": {"[1]": {"experiment": "Plasma levels after intramuscular injection in the dog", "design": "species or system chien", "settings": "in vivo; for concentration at 0.5 h / concentration at 1 h / concentration at 2 h / concentration at 4 h / concentration at 6 h / concentration at 12 h / concentration at 24 h: dog, im", "protocol": "a/ Détermination des taux plasmatiques après injection par voie intramusculaire chez le chien\nDose administrée : 15 mg/kg en équivalent acide oxolinique (Comparaison avec l'activité pharmacocinétique de l'acide oxolinique) TABLEAU III"}, "[2]": {"experiment": "Plasma levels after intravenous injection in the dog", "design": "species or system chien", "settings": "in vivo", "protocol": "b/ Détermination des taux plasmatiques après injection intraveineuse chez le chien\nDose administrée : 15 mg/kg en équivalent acide oxolinique TABLEAU IV"}, "[3]": {"experiment": "Plasma levels after intramuscular injection in the rat", "type": "in vivo", "protocol": "c/ Détermination des taux plasmatiques après injection par voie intramusculaire chez le rat\nDose administrée : 20 mg/kg en équivalent acide oxolinique TABLEAU V"}, "[4]": {"experiment": "Presence of the active principle in tissues after intramuscular injection in the rat", "type": "in vivo", "settings": "i.m., 20 mg/kg en équivalent acide oxolinique", "protocol": "d/ Détermination de la présence du principe actif dans les tissus après injection par voie intramusculaire chez le rat\nDose administrée : 20 mg/kg en équivalent acide oxolinique TABLEAU VI"}, "[5]": {"experiment": "Solubility in water and in usual solvents", "settings": "qualitative statement"}, "[6]": {"experiment": "Hydrolysis kinetics at room temperature", "type": "physicochemical", "description": "Ainsi par exemple, l'étude cinétique à température ambiante de l'hydrolyse du composé JL 93V (stable en milieu faiblement acide et en milieu neutre) montre qu'il y a libération d'environ 50 % du principe actif (acide oxolinique) après 24 heures d'hydrolyse en milieu hydroxyde de sodium 0,001 M et coupure immédiate de la liaison ester en milieu hydroxyde de sodium 0,1 M. Cette liaison ester, tout comme d'ailleurs la liaison thioester ou amide, apparaît donc comme étant suffisamment labile par hydrolyse pour libérer le principe actif dans l'organisme."}, "[7]": {"experiment": "Acute toxicity, lethal dose 50 in the mouse", "settings": "in vivo, souris, read-out: DL 50 (the source's name)", "protocol": "La toxicité des composés selon l'invention a également été étudiée par la mesure de la dose léthale 50 (DL 50) chez la souris et ils se sont révélés être satisfaisants sur ce plan. A titre d'exemple, on notera que pour le composé JL 93V, la DL 50 (souris; voie intraveineuse) est de 240 mg/kg et que la DL 50 (souris; voie orale) est de 1120 mg/kg."}},
  "note": "Read-outs that look alike come from different tables or passages of the source.",
  "data": [
    {"compound": "CCn1cc(C(=O)O)c(=O)c2cc3c(cc21)OCO3", "note": "[Acide oxolinique, acide oxolinique, reference compound]", "values": [
      {"measurement": "concentration at 0.5 h", "setting": "[1]; chien, i.m., 15 mg/kg en équivalent acide oxolinique, 0,5 h, read-out: Taux plasmatiques", "value": 6060, "unit": "ng/mL"},
      {"measurement": "concentration at 1 h", "setting": "[1]; chien, i.m., 15 mg/kg en équivalent acide oxolinique, 1 h, read-out: Taux plasmatiques", "value": 6550, "unit": "ng/mL"},
      {"measurement": "concentration at 2 h", "setting": "[1]; chien, i.m., 15 mg/kg en équivalent acide oxolinique, 2 h, read-out: Taux plasmatiques", "value": 5460, "unit": "ng/mL"},
      {"measurement": "concentration at 4 h", "setting": "[1]; chien, i.m., 15 mg/kg en équivalent acide oxolinique, 4 h, read-out: Taux plasmatiques", "value": 3030, "unit": "ng/mL"},
      {"measurement": "concentration at 6 h", "setting": "[1]; chien, i.m., 15 mg/kg en équivalent acide oxolinique, 6 h, read-out: Taux plasmatiques", "value": 2470, "unit": "ng/mL"},
      {"measurement": "concentration at 12 h", "setting": "[1]; chien, i.m., 15 mg/kg en équivalent acide oxolinique, 12 h, read-out: Taux plasmatiques", "value": 1430, "unit": "ng/mL"},
      {"measurement": "concentration at 24 h", "setting": "[1]; chien, i.m., 15 mg/kg en équivalent acide oxolinique, 24 h, read-out: Taux plasmatiques", "value": 980, "unit": "ng/mL"},
      {"measurement": "concentration at 0.5 h", "setting": "[2]; chien, i.v., 15 mg/kg en équivalent acide oxolinique, 0,5 h, read-out: Taux plasmatiques", "value": 36800, "unit": "ng/mL"},
      {"measurement": "concentration at 1 h", "setting": "[2]; chien, i.v., 15 mg/kg en équivalent acide oxolinique, 1 h, read-out: Taux plasmatiques", "value": 29800, "unit": "ng/mL"},
      {"measurement": "concentration at 2 h", "setting": "[2]; chien, i.v., 15 mg/kg en équivalent acide oxolinique, 2 h, read-out: Taux plasmatiques", "value": 22300, "unit": "ng/mL"},
      {"measurement": "concentration at 6 h", "setting": "[2]; chien, i.v., 15 mg/kg en équivalent acide oxolinique, 6 h, read-out: Taux plasmatiques", "value": 8890, "unit": "ng/mL"},
      {"measurement": "concentration at 8 h", "setting": "[2]; chien, i.v., 15 mg/kg en équivalent acide oxolinique, 8 h, read-out: Taux plasmatiques", "value": 5650, "unit": "ng/mL"},
      {"measurement": "concentration at 10 h", "setting": "[2]; chien, i.v., 15 mg/kg en équivalent acide oxolinique, 10 h, read-out: Taux plasmatiques", "value": 3590, "unit": "ng/mL"},
      {"measurement": "concentration at 24 h", "setting": "[2]; chien, i.v., 15 mg/kg en équivalent acide oxolinique, 24 h, read-out: Taux plasmatiques", "value": 150, "unit": "ng/mL"},
      {"measurement": "Taux plasmatiques", "setting": "[3]; i.m., 20 mg/kg en équivalent acide oxolinique, 6 h", "value": "nul"},
      {"measurement": "Taux plasmatiques", "setting": "[3]; i.m., 20 mg/kg en équivalent acide oxolinique, 24 h", "value": "nul"},
      {"measurement": "concentration at 1 h", "setting": "[3]; in vivo, im, 20 mg/kg en équivalent acide oxolinique, 1 h, read-out: Taux plasmatiques", "value": 785, "unit": "ng/mL"},
      {"measurement": "concentration at 3 h", "setting": "[3]; in vivo, im, 20 mg/kg en équivalent acide oxolinique, 3 h, read-out: Taux plasmatiques", "value": 225, "unit": "ng/mL"},
      {"measurement": "Présence dans les tissus (foie, poumons, reins, muscles)", "setting": "[4]; 1 h", "value": "nulle"},
      {"measurement": "Présence dans les tissus (foie, poumons, reins, muscles)", "setting": "[4]; 3 h", "value": "nulle"},
      {"measurement": "Présence dans les tissus (foie, poumons, reins, muscles)", "setting": "[4]; 6 h", "value": "nulle"},
      {"measurement": "Présence dans les tissus (foie, poumons, reins, muscles)", "setting": "[4]; 24 h", "value": "nulle"},
      {"measurement": "solubilité dans l'eau ou les solvants organiques habituellement utilisés en galénique", "setting": "[5]", "value": "relativement peu soluble"}
    ]},
    {"compound": "CCOCCOCCOC(=O)c1cn(CC)c2cc3c(cc2c1=O)OCO3", "note": "[JL 93V]", "values": [
      {"measurement": "degraded at 24 h", "setting": "[6]; 0.001 m naoh, room temperature, after 24 heures of hydrolysis in hydroxyde de sodium 0,001 M, read-out: libération du principe actif (acide oxolinique)", "value": "~50", "unit": "%"},
      {"measurement": "stabilité", "setting": "[6]; milieu faiblement acide and milieu neutre", "value": "stable"},
      {"measurement": "coupure de la liaison ester", "setting": "[6]; room temperature, hydroxyde de sodium 0,1 M", "value": "immédiate"},
      {"measurement": "concentration at 0.5 h", "setting": "[1]; 15 mg/kg", "value": 7250, "unit": "ng/mL"},
      {"measurement": "concentration at 1 h", "setting": "[1]; 15 mg/kg", "value": 16100, "unit": "ng/mL"},
      {"measurement": "concentration at 2 h", "setting": "[1]; 15 mg/kg", "value": 15600, "unit": "ng/mL"},
      {"measurement": "concentration at 4 h", "setting": "[1]; 15 mg/kg", "value": 10800, "unit": "ng/mL"},
      {"measurement": "concentration at 6 h", "setting": "[1]; 15 mg/kg", "value": 6080, "unit": "ng/mL"},
      {"measurement": "concentration at 12 h", "setting": "[1]; 15 mg/kg", "value": 2310, "unit": "ng/mL"},
      {"measurement": "concentration at 24 h", "setting": "[1]; 15 mg/kg", "value": 450, "unit": "ng/mL"},
      {"measurement": "aire sous la courbe (taux en fonction du temps)", "setting": "[1]; 15 mg/kg", "value": "plus importante"},
      {"measurement": "concentration at 0.5 h", "setting": "[2]; 15 mg/kg", "value": 33600, "unit": "ng/mL"},
      {"measurement": "concentration at 1 h", "setting": "[2]; 15 mg/kg", "value": 30200, "unit": "ng/mL"},
      {"measurement": "concentration at 2 h", "setting": "[2]; 15 mg/kg", "value": 23400, "unit": "ng/mL"},
      {"measurement": "concentration at 6 h", "setting": "[2]; 15 mg/kg", "value": 10900, "unit": "ng/mL"},
      {"measurement": "concentration at 8 h", "setting": "[2]; 15 mg/kg", "value": 8230, "unit": "ng/mL"},
      {"measurement": "concentration at 10 h", "setting": "[2]; 15 mg/kg", "value": 6350, "unit": "ng/mL"},
      {"measurement": "concentration at 24 h", "setting": "[2]; 15 mg/kg", "value": 1190, "unit": "ng/mL"},
      {"measurement": "Taux plasmatiques", "setting": "[3]; in vivo, 20 mg/kg", "value": "nul"},
      {"measurement": "aire sous la courbe", "setting": "[3]; in vivo, 20 mg/kg", "value": "plus importante"},
      {"measurement": "concentration at 1 h", "setting": "[3]; in vivo, im, 20 mg/kg", "value": 15700, "unit": "ng/mL"},
      {"measurement": "concentration at 3 h", "setting": "[3]; in vivo, im, 20 mg/kg", "value": 8780, "unit": "ng/mL"},
      {"measurement": "concentration at 6 h", "setting": "[3]; in vivo, im, 20 mg/kg", "value": 3420, "unit": "ng/mL"},
      {"measurement": "LD50", "setting": "[7]; iv, voie intraveineuse", "value": 240, "unit": "mg/kg"},
      {"measurement": "LD50", "setting": "[7]; po, voie orale", "value": 1120, "unit": "mg/kg"}
    ]}
  ]
}
